Our source for the IC50 values is patent publication US20230002393A1, “CDK KINASE INHIBITOR” (BEIJING BENICALL BIOTECH CO., LTD., priority 2019, published 2023).

One assay deals with MCF-7 cells. The experiment in a line: Cell viability assay, MCF-7 cells (CellTiter-Glo, 168 h). In kind it is cell-based. The settings on record: Homo sapiens, MCF7. As to the method:
An in vitro cell viability assay was conducted using some Example compounds following the steps below:
1. After recovery, MCF-7 cells (obtained from the Shanghai Cell Bank of the Chinese Academy of Sciences) were cultured at 37° C., 5% CO2, and 95% humidity.
2. 8 compound solutions at different concentrations were prepared for each Example compound. 50 μL of the compound solution at each concentration was added to a 96-well black plate.
3. The cell concentration was adjusted to about 30,000 cells/mL. 100 μL of the cell suspension was added to the 96-well plate, and mixed well to a final cell density of about 3,000 cells/well.
4. The 96-well plate was incubated at 37° C., 5% CO2, and 95% humidity for 168 h, i.e., 7 days.
5. The cell survival rate was measured by the method of CellTiter-Glo® Luminescent Cell Viability Assay (Promega, Cat #G7572). The fluorescence data were read on a microplate reader (EnVision™, a multi-function microplate detector, PerkinElmer).
6. The obtained fluorescence data were analyzed using the GraphPad Prism software. The cell survival rate was calculated for each Example compound at each concentration, and the IC50 interval of each Example compound was determined.
(In general: In ATP-based viability assays light output follows the ATP content of the culture.)

The target of the next assay is T1, CDK6/CyclinD1 (Homo sapiens, UniProt Q00534).
T1 construct: purchased Carna 04-114
T1 sequence (Q00534 whole entry): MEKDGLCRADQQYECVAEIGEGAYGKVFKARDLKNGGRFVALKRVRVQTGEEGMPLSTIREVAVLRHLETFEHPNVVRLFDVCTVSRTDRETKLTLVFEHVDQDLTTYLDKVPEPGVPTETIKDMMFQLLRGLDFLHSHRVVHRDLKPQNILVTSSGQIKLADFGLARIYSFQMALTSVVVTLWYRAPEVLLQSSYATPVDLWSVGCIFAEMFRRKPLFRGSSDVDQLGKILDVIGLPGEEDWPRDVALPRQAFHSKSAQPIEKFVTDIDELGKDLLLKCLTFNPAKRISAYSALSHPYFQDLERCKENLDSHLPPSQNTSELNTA
T1 sequence (P24385 whole entry partner): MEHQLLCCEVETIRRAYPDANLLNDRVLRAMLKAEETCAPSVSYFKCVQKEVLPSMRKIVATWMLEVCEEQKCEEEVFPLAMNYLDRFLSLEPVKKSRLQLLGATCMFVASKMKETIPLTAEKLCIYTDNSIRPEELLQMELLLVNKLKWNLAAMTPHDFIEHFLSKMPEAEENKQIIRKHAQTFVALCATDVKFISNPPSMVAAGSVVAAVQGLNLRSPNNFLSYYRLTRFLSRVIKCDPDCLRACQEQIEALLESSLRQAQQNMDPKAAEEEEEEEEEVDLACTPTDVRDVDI
The experiment in a line: In vitro cell-free CDK6/CyclinD1 kinase activity assay (TR-FRET). In kind it is biochemical. The conditions noted are these: ATP at Km. Here is the method: It should be noted that the assay can also be conducted by a similar method. The assay steps in this Test Example are as follows:
The CDK6/CyclinD1 kinase activity was determined using a time-resolved fluorescence resonance energy transfer (TR-FRET) method. Measurements were performed in a reaction volume of 20 μL using 384-well assay plates. […] The reaction was stopped by adding a mixture of a peptide antibody (trade name: Cisbio, product No. 64CUSKAY) and Sa-XL665 (trade name: Cisbio, product No. 610SAXLB) diluted in HTRF KinEASE detection buffer (trade name: Cisbio, product No. 62SDBRDF, containing EDTA). After the mixture was incubated for 1 hour at room temperature, the plate was read. The TR-FRET signal was measured on a multimode plate reader (EnVision™, a multi-function microplate detector, PerkinElmer) at an excitation wavelength (λEx) of 330 nm and detection wavelengths (λEm) of 615 and 665 nm. The activity was determined by the ratio of fluorescence at 665 nm to that at 615 nm. For each compound, the enzyme activities of different concentrations of the compound were measured to determine IC50. The negative control contained no inhibitor. Two no-enzyme controls were used to determine baseline fluorescence levels. IC50 was obtained by fitting using the GraphPad 6.02 software.
8-10 concentrations were prepared for each compound, and formulated in DMSO. The stock concentration was 200× the working concentration. For example, if the working concentration was 100 nM, the corresponding concentration of the formulated stock solution was 20 μM.
In the analysis of in vitro inhibitory activity on CDK kinase, the IC50 value of each of the Example compounds and Reference Example compounds was determined.
On the technique in general: TR-FRET usually uses a lanthanide donor and a delayed reading to cut background.

Where only a bound is given, the exact number is not on record here.

In the case of `N#Cc1cc2cnc(Nc3ccc(N4CCNCC4)cn3)nn2c1N1CCCC1` [Example 26], the values for the half-maximal inhibitory concentration (IC50) in the assay on MCF-7 cells and at CDK6/CyclinD1 were less than 500 nM and less than 100 nM, respectively.
Consider `Cn1cc(-c2c(Br)c3cnc(Nc4ccc(N5CCNCC5)cc4)nn3c2Br)cn1` [Example 8], for which the figures for the half-inhibitory concentration (IC50) in the assay on MCF-7 cells and against CDK6/CyclinD1 were 500 to 2500 nM and less than 100 nM, respectively.
The like results for `Cc1noc(C)c1-c1cc2cnc(Nc3ccc(N4CCNCC4)cn3)nn2c1-c1ccc(F)cc1` [Example 20] were, in that order, 500 to 2500 nM and 100 to 1000 nM.
On to `CN(C)C(=O)c1cc2cnc(Nc3ccc(N4CCNCC4)cn3)nn2c1-c1ccc(Cl)cc1` [Example 34], for which the IC50 in the assay on MCF-7 cells was less than 500 nM; at CDK6/CyclinD1, less than 100 nM.
The like results for `CN(C)C(=O)c1cc2cnc(Nc3ccc(N4CCNCC4)cn3)nn2c1-c1ccc(F)cc1` [Example 32] were, in that order, less than 500 nM and less than 100 nM.
The matching figures for `N#Cc1cc2cnc(Nc3ccc(N4CCNCC4)cc3)nn2c1-c1ccc(Cl)cc1` [Example 7]: less than 500 nM and less than 100 nM.
The matching figures for `[2H]C([2H])([2H])N1CCN(c2ccc(Nc3ncc4cc(C(=O)N(C([2H])([2H])[2H])C([2H])([2H])[2H])c(-c5ccc(Cl)cc5)n4n3)nc2)CC1` [Example 127]: less than 500 nM and less than 100 nM.
For the molecule `COc1cc(F)ccc1-c1c(-c2cn[nH]c2)cc2cnc(Nc3ccc(N4CCNCC4)cn3)nn12` [Example 94], the IC50 with MCF-7 cells is less than 500 nM; against CDK6/CyclinD1 it was less than 100 nM.
Consider `N#Cc1cc2cnc(Nc3ccc(N4CCNCC4)cn3)nn2c1C1=CCC(=O)CC1` [Example 30], for which the IC50 in the assay on MCF-7 cells lay in the range of 2500 to 10000 nM; on CDK6/CyclinD1, 100 to 1000 nM.
The like results for `C1=C(c2c(-c3ccncc3)cc3cnc(Nc4ccc(N5CCNCC5)cn4)nn23)CCC1` [Example 97] were, in that order, less than 500 nM and less than 100 nM.
The like results for `COc1ccc(-c2c(-c3cnn(C)c3)cc3cnc(Nc4ccc(N5CCNCC5)cn4)nn23)cc1` [Example 19] were, in that order, 500 to 2500 nM and less than 100 nM.
The like results for `CN1CCN(c2ccc(Nc3ncc4cc(-c5cncnc5)c(C5=CCCC5)n4n3)nc2)CC1` [Example 98] were, in that order, 500 to 2500 nM and less than 100 nM.
Consider `[2H]C([2H])([2H])N(C(=O)c1cc2cnc(Nc3ccc(N4CCN(C)CC4)cn3)nn2c1-c1ccccc1)C([2H])([2H])[2H]` [Example 120], for which the IC50 in the assay with MCF-7 cells was less than 500 nM; against CDK6/CyclinD1 it was less than 100 nM.
Take `COc1cc(F)ccc1-c1c(C#N)cc2cnc(Nc3ccc(N4CCNCC4)cc3)nn12` [Example 11]: the IC50 in the assay with MCF-7 cells was less than 500 nM; on CDK6/CyclinD1 it was less than 100 nM.
The matching figures for `COc1cc(F)ccc1-c1c(C(=O)N(C)C)cc2cnc(Nc3ccc(N4CC5(CNC5)C4)cn3)nn12` [Example 65]: 2500 to 10000 nM and less than 100 nM.
The like results for `N#Cc1cc2cnc(Nc3ccc(N4CCNCC4)cc3)nn2c1C1=CCCC1` [Example 2] were, in that order, less than 500 nM and less than 100 nM.
The like results for `N#Cc1cc2cnc(Nc3ccc(N4CCNCC4)cc3)nn2c1N1CCCC1` [Example 6] were, in that order, less than 500 nM and less than 100 nM.
Regarding `C1=C(c2c(-c3cccnc3)cc3cnc(Nc4ccc(N5CCNCC5)cn4)nn23)CCC1` [Example 88], the half-inhibitory concentration (IC50) in the assay with MCF-7 cells was less than 500 nM; at CDK6/CyclinD1, less than 100 nM.
The matching figures for `C1=C(c2c(-c3cnco3)cc3cnc(Nc4ccc(N5CCNCC5)cn4)nn23)CCC1` [Example 111]: less than 500 nM and less than 100 nM.
For `COCCOc1ccc(-c2c(C(=O)N(C)C)cc3cnc(Nc4ccc(N5CC6(CCNC6)C5)cn4)nn23)cc1` [Example 49], the values for the IC50 with MCF-7 cells and at CDK6/CyclinD1 were 500 to 2500 nM and less than 100 nM, respectively.
The like results for `COc1cc(F)ccc1-c1c(-c2c[nH]nc2C)cc2cnc(Nc3ccc(N4CCNCC4)cn3)nn12` [Example 91] were, in that order, 2500 to 10000 nM and 100 to 1000 nM.
The matching figures for `[2H]C([2H])([2H])N(C(=O)c1cc2cnc(Nc3ccc(N4CCNCC4)cn3)nn2c1-c1ccccc1)C([2H])([2H])[2H]` [Example 116]: less than 500 nM and less than 100 nM.
In the case of `Cn1cc(-c2cc3cnc(Nc4ccc(N5CCNCC5)cn4)nn3c2N2CCCC2)cn1` [Example 55], the IC50 in the assay with MCF-7 cells is less than 500 nM; against CDK6/CyclinD1 it was less than 100 nM.
The matching figures for `Cc1noc(C)c1-c1c(-c2cnn(C)c2)c(-c2c(C)noc2C)n2nc(Nc3ccc(N4CCNCC4)cn3)ncc12` [Reference Example 131, reference compound]: greater than 10000 nM and greater than 3000 nM.
Turning to `Cn1cc(-c2cc3cnc(Nc4ccc(N5CCNCC5)cn4)nn3c2C2CCCC2)cn1` [Example 71], the IC50 is 500 to 2500 nM in the assay with MCF-7 cells and less than 100 nM against CDK6/CyclinD1.
For `COc1ccc(-c2c(C#N)cc3cnc(Nc4ccc(N5CCNCC5)cc4)nn23)cc1` [Example 9], the IC50 was less than 500 nM in the assay on MCF-7 cells and less than 100 nM on CDK6/CyclinD1.
The matching figures for `CN(C)C(=O)c1cc2cnc(Nc3ccc(N4CCC5(CCNCC5)C4)cn3)nn2c1-c1ccc(Cl)cc1` [Example 43]: 500 to 2500 nM and less than 100 nM.
Take `N#Cc1cc2cnc(Nc3ccc(N4CCNCC4)cc3)nn2c1-c1cccc2cccnc12` [Example 15]: the IC50 with MCF-7 cells is less than 500 nM; against CDK6/CyclinD1, 100 to 1000 nM.
The matching figures for `CN1CCN(c2ccc(Nc3ncc4cc(C(=O)N(C)C)c(C5=CCCC5)n4n3)nc2)CC1` [Example 99]: less than 500 nM and less than 100 nM.
Take `CN(C)C(=O)c1cc2cnc(Nc3ccc(N4CCNC5(CC5)C4)cn3)nn2c1-c1ccc(Cl)cc1` [Example 45]: the IC50 with MCF-7 cells was 500 to 2500 nM; against CDK6/CyclinD1, less than 100 nM.
The matching figures for `[2H]C([2H])([2H])N1CCN(c2ccc(Nc3ncc4cc(C(=O)N(C)C)c(C5=CCOCC5)n4n3)nc2)CC1` [Example 106]: less than 500 nM and less than 100 nM.
The like results for `Cn1cc(-c2cc3cnc(Nc4ccc(N5CC6(CCNC6)C5)cn4)nn3c2C2=CCCC2)cn1` [Example 92] were, in that order, 500 to 2500 nM and 100 to 1000 nM.
For `[2H]C([2H])([2H])N1CCN(c2ccc(Nc3ncc4cc(C(=O)N(C([2H])([2H])[2H])C([2H])([2H])[2H])c(-c5ccccc5)n4n3)nc2)CC1` [Example 123], the IC50 in the assay on MCF-7 cells is less than 500 nM; at CDK6/CyclinD1, less than 100 nM.
The matching figures for `C1=C(c2ccc3cnc(Nc4ccc(N5CCNCC5)cc4)nn23)CCC1` [Example 4]: less than 500 nM and 100 to 1000 nM.
The matching figures for `Cc1ccc(-c2cc3cnc(Nc4ccc(N5CCNCC5)cn4)nn3c2C2=CCCC2)s1` [Example 83]: 500 to 2500 nM and 100 to 1000 nM.
Consider `N#Cc1cc2cnc(Nc3ccc(N4CCNCC4)cn3)nn2c1-c1ccc(Cl)cc1` [Example 24], for which the IC50 with MCF-7 cells is less than 500 nM; against CDK6/CyclinD1 it was less than 100 nM.
Turning to `[2H]C([2H])([2H])N1CCN(c2ccc(Nc3ncc4cc(C(=O)N(C)C)c(-c5ccc(OC)cc5)n4n3)nc2)CC1` [Example 101], the IC50 in the assay with MCF-7 cells is less than 500 nM; at CDK6/CyclinD1 it was less than 100 nM.
The like results for `Cc1nn(C)cc1-c1cc2cnc(Nc3ccc(N4CCNCC4)cn3)nn2c1C1=CCCC1` [Example 23] were, in that order, less than 500 nM and 100 to 1000 nM.
The matching figures for `CN(C)C(=O)c1cc2cnc(Nc3ccc(N4CCC5(CC4)CNC5)cn3)nn2c1C1=CCCC1` [Example 41]: less than 500 nM and less than 100 nM.
The like results for `Cn1cc(-c2cc3cnc(Nc4ccc(N5CCNCC5)cn4)nn3c2-c2ccncc2)cn1` [Example 54] were, in that order, 500 to 2500 nM and less than 100 nM.
For `CN(C)C(=O)c1cc2cnc(Nc3ccc(N4CCNCC4)cn3)nn2c1-c1ccccc1` [Example 108], the concentration for half-maximal inhibition (IC50) with MCF-7 cells is less than 500 nM; on CDK6/CyclinD1, less than 100 nM.
`FC(F)n1cc(-c2cc3cnc(Nc4ccc(N5CCNCC5)cn4)nn3c2C2=CCCC2)cn1` [Example 72]: the IC50 in the assay on MCF-7 cells was in the range of 500 to 2500 nM; at CDK6/CyclinD1, 100 to 1000 nM.
On to `N#Cc1cc2cnc(Nc3ccc(N4CCNCC4)cc3)nn2c1Br` [Example 1], for which the concentration for half-maximal inhibition (IC50) in the assay with MCF-7 cells was less than 500 nM; against CDK6/CyclinD1 it was less than 100 nM.
The matching figures for `COc1cc(F)ccc1-c1c(C(=O)N(C)C)cc2cnc(Nc3ccc(N4CCNCC4)cn3)nn12` [Example 59]: 500 to 2500 nM and less than 100 nM.

For orientation: IC50 means the midpoint of a concentration-inhibition curve. The low end stands for greater potency in that assay, the high end for weaker potency in that assay.
